We go through 20 compounds from patent US20260137703A1, “2-AMINO-PYRIDO[2,3-D]PYRIMIDIN-7(8H)-ONE AND 7-AMINO-1-PYRIMIDO[4,5-D]PYRIMIDIN-2(1 H)-ONE DERIVATIVES AS EGFR INHIBITORS FOR THE TREATMENT OF CANCER” (Cancer Research Technology Limited, priority 2022, published 2026).

For test [1], the target named is T1, Phospho-EGFR (Tyr1068) in A431 cells (Homo sapiens, UniProt P00533).
T1 construct: endogenous in cells; host or cells: A431
As to the kind of experiment: HTRF pEGFR/total EGFR in A431 cells with EGF stimulation. The following applies: ratio pEGFR/total EGFR, compound 2.5 hours then 100 ng/ml EGF 30 mins. Type of test: cell-based. An outline of the steps:
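A431 cells were plated at 20,000 per well, allowed 24 h to adhere, then given compound for 2.5 h (0.1% DMSO final). They were then stimulated with 100 ng/ml EGF for 30 min and lysed. HTRF measured Tyr1068-phospho and total EGFR at 665/620 nm, with pEGFR/total EGFR expressed as % of the 0 μM control.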

Test [2] concerns the target CtermHisTag-mEGFR Wild type (Homo sapiens, UniProt P00533). As to the kind of experiment: biochemical.
Test [3] addresses T2, Phospho-EGFR (Tyr1068) in H1975 cells (Homo sapiens, UniProt P00533, L858R/T790M).
T2 construct: host or cells: H1975
As to the kind of experiment: HTRF pEGFR/total EGFR in H1975 cells. The following applies: ratio pEGFR/total EGFR, compound 3 hours. The format is cell-based. An outline of the steps: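 H1975 cells (EGFR L858R/T790M) treated 3 h with compound in 0.1% DMSO, in duplicate, 24 h after plating. Lysates assayed by HTRF for pEGFR (Tyr1068) and total EGFR at 665/620 nm; values are pEGFR/total EGFR ratio as percent of 0 μM control.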

Test [4] has as its target T3, Phospho-EGFR (Tyr1068) in H1975 C797S cells (CRISPR-edited EGFR C797S) (Homo sapiens, UniProt P00533, C797S/L858R/T790M).
T3 construct: host or cells: H1975 C797S (CRISPR-edited)
Nature of the test: HTRF pEGFR/total EGFR in H1975 C797S cells. Type of test: cell-based. Conditions: ratio pEGFR/total EGFR, compound 3 hours. The essentials: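 Adhered H1975 C797S cells got compound for 3 h in duplicate at 0.1% DMSO final, then were lysed 30 min at room temperature. HTRF kits quantified phospho-EGFR (Tyr1068) and total EGFR (665/620 nm); results are pEGFR/total EGFR ratio as percent of 0 μM control.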

T1 sequence (P00533 25-1210): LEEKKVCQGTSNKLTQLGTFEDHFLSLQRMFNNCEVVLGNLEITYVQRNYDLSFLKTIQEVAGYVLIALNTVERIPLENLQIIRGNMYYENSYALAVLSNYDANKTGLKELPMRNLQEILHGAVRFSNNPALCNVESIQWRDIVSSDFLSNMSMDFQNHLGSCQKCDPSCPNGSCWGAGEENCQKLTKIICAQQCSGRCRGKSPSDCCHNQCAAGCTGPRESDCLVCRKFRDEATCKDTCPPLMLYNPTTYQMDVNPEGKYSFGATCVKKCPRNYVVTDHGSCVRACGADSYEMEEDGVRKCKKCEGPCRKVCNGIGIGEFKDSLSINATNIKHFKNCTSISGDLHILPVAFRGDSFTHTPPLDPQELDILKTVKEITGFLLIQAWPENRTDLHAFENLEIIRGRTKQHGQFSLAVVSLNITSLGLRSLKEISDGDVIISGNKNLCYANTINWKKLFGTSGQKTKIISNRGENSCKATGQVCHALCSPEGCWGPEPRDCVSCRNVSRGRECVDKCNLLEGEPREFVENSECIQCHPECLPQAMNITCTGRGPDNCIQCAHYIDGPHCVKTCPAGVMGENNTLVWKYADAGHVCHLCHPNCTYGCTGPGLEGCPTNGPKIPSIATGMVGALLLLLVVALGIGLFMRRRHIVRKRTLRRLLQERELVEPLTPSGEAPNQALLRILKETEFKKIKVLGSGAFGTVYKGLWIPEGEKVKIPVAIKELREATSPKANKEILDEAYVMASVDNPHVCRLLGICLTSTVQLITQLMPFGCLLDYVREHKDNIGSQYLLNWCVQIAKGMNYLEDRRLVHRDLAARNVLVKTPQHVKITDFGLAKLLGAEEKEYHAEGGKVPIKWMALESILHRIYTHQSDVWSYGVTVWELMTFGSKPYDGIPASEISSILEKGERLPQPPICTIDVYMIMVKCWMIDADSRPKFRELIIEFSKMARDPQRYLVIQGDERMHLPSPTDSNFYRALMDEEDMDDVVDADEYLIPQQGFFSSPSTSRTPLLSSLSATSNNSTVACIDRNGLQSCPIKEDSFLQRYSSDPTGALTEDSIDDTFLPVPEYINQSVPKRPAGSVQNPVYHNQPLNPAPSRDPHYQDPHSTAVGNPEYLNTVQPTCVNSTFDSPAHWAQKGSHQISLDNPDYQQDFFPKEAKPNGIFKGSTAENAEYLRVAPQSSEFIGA
T2 sequence (P00533 25-1210 T790M/L858R): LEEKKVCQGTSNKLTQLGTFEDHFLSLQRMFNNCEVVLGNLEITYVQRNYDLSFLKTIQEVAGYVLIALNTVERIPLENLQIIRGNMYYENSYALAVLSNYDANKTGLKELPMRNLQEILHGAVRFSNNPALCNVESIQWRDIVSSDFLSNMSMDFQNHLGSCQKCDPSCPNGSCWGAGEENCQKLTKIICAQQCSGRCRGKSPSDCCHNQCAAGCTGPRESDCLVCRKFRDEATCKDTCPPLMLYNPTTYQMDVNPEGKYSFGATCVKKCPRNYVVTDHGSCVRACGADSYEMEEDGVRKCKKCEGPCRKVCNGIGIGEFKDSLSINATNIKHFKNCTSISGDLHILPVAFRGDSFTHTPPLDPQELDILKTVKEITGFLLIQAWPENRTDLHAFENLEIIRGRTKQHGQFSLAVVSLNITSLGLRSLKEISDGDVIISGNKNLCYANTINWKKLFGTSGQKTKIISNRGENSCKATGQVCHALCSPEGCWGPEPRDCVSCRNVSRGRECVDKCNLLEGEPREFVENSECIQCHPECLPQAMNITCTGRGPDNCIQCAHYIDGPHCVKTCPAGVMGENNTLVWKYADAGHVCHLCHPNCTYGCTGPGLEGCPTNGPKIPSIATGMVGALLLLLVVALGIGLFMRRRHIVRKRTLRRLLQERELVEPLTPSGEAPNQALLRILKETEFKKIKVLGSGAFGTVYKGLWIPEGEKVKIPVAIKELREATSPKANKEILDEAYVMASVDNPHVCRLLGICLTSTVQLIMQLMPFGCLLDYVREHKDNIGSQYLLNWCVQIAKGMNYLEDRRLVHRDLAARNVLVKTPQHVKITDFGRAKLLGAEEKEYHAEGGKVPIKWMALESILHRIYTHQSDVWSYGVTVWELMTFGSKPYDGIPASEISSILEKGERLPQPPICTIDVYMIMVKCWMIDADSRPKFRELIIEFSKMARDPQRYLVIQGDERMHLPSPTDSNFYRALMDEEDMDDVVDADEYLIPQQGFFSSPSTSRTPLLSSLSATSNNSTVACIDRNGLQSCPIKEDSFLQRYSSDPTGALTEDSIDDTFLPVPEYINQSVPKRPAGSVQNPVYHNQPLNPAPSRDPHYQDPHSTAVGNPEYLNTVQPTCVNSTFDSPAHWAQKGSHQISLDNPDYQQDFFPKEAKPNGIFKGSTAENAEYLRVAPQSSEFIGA
T3 sequence (P00533 25-1210 T790M/C797S/L858R): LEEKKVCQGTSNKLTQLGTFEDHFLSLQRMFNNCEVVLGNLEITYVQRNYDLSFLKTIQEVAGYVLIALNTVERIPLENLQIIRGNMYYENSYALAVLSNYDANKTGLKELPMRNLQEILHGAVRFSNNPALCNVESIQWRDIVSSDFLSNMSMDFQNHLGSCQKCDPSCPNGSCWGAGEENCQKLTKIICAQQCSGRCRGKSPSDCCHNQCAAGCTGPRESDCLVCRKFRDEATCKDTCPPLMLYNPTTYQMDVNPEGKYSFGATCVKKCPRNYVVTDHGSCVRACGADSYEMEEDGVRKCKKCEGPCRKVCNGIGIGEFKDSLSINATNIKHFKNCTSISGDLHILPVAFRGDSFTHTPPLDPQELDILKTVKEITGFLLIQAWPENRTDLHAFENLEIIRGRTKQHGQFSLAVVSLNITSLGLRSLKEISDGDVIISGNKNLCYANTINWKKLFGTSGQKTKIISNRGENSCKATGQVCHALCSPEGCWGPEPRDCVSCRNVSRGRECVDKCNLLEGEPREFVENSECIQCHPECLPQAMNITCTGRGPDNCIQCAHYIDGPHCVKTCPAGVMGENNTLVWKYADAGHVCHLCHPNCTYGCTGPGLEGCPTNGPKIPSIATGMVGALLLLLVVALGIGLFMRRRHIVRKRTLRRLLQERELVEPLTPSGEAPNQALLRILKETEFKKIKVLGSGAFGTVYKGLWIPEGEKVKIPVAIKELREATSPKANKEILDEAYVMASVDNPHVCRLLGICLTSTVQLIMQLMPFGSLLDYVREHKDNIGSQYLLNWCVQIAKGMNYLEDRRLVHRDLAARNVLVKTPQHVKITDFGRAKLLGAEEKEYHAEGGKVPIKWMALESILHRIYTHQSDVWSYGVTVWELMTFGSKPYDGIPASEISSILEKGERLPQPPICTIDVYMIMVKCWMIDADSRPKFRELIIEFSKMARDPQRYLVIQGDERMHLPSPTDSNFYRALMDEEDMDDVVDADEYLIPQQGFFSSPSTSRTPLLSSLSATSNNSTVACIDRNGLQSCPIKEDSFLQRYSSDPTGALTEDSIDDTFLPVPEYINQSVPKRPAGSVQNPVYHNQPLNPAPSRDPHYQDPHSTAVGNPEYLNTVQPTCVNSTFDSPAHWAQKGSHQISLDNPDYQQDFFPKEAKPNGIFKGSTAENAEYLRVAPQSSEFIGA
Sequence of CtermHisTag-mEGFR Wild type (P00533 whole entry): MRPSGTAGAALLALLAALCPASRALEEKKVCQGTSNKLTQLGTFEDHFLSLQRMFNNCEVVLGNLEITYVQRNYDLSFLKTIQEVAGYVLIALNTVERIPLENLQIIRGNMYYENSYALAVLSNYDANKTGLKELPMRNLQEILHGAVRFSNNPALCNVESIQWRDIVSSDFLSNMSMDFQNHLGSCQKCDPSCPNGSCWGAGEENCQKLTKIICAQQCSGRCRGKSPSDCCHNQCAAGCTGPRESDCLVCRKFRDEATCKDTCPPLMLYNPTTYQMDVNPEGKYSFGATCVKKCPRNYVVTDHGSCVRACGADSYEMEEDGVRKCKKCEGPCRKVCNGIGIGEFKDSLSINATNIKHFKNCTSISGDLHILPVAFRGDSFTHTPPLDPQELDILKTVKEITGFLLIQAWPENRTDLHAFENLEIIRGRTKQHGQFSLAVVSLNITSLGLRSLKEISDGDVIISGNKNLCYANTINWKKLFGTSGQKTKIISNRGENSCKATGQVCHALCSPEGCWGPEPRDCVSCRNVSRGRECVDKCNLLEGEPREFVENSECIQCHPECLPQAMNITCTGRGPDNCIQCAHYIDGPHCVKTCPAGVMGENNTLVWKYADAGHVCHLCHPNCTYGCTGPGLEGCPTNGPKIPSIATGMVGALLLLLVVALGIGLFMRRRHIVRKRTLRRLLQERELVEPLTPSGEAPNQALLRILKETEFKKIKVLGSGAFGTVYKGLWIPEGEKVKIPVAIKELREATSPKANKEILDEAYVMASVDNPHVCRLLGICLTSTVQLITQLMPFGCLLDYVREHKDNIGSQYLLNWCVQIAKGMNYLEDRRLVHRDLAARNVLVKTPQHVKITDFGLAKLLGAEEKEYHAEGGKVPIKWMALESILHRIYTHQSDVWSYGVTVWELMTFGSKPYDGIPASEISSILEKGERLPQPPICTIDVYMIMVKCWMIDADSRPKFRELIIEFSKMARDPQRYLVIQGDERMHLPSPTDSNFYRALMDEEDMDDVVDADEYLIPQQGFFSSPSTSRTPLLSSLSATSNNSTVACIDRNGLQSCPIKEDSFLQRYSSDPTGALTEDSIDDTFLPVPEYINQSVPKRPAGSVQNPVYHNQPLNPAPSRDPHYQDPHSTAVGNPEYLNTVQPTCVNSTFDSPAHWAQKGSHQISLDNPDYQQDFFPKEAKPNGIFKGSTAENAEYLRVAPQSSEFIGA

As to `C#Cc1c(-c2c(Cl)cccc2Cl)c(=O)n(C)c2nc(Nc3ccc(N(C)CCN(C)C)cc3)ncc12` [Example 134, 6-(2,6-dichlorophenyl)-2-[(4-{[2-(dimethylamino)ethyl](methyl)amino}phenyl)amino]-5-ethynyl-8-methylpyrido[2,3-d]pyrimidin-7-one], the IC50 is above 3 µM in test [1], above 10 µM in test [2], above 3 µM in test [3] and above 3 µM in test [4].
With `C#Cc1c(-c2cccc(F)c2Cl)c(=O)n(C)c2nc(Nc3ccc(N(C)CCN(C)C)cc3)ncc12` [Example 135, 6-(2-chloro-3-fluorophenyl)-2-[(4-{[2-(dimethylamino)ethyl](methyl)amino}phenyl)amino]-5-ethynyl-8-methylpyrido[2,3-d]pyrimidin-7-one], the IC50 is 1 to 3 µM in test [1], below 1 µM in test [2], 0.5 to 1 µM in test [3] and 0.5 to 1 µM in test [4].
Consider `C#Cc1c(-c2cc(OC)ccc2Cl)c(=O)n(C)c2nc(Nc3ccc(N(C)CCN(C)C)cc3)ncc12` [Example 136, 6-(2-chloro-5-methoxyphenyl)-2-[(4-{[2-(dimethylamino)ethyl](methyl)amino}phenyl)amino]-5-ethynyl-8-methylpyrido[2,3-d]pyrimidin-7-one], for which the IC50 was 1 to 3 µM in test [1], below 1 µM in test [2], below 0.5 µM in test [3] and 0.5 to 1 µM in test [4].
The corresponding values for `C#Cc1c(-c2cc(F)ccc2Cl)c(=O)n(C)c2nc(Nc3ccc(N(C)CCN(C)C)cc3)ncc12` [Example 137, 6-(2-chloro-5-fluorophenyl)-2-[(4-{[2-(dimethylamino)ethyl](methyl)amino}phenyl)amino]-5-ethynyl-8-methylpyrido[2,3-d]pyrimidin-7-one] are 1 to 3 µM, below 1 µM, 0.5 to 1 µM and below 0.5 µM.
The like results for `C#Cc1c(-c2ccncc2Cl)c(=O)n(C)c2nc(Nc3ccc(N(C)CCN(C)C)cc3)ncc12` [Example 139, 6-(3-chloropyridin-4-yl)-2-[(4-{[2-(dimethylamino)ethyl](methyl)amino}phenyl)amino]-5-ethynyl-8-methylpyrido [2,3-d]pyrimidin-7-one] were, in that order, above 3 µM, below 1 µM, 1 to 3 µM and 1 to 3 µM.
The like results for `C#Cc1c(Nc2ccccc2)c(=O)n(C)c2nc(Nc3ccc(N(C)CCN(C)C)cc3)ncc12` [Example 144, 2-[(4-{[2-(dimethylamino)ethyl](methyl)amino}phenyl)amino]-5-ethynyl-8-methyl-6-(phenylamino)pyrido[2,3-d]pyrimidin-7-one] were, in that order, below 0.5 µM, below 1 µM, 1 to 3 µM and 1 to 3 µM.
Turning to `C#Cc1c(C2CC2)c(=O)n(C)c2nc(Nc3ccc(N4CCN(C)CC4)cc3)ncc12` [Example 148, 6-cyclopropyl-5-ethynyl-8-methyl-2-{[4-(4-methylpiperazin-1-yl)phenyl]amino}pyrido[2,3-d]pyrimidin-7-one], the IC50 was above 3 µM in test [1], above 10 µM in test [2], above 3 µM in test [3] and above 3 µM in test [4].
Turning to `C#Cc1c(C)c(=O)n(C)c2nc(Nc3ccc(N4CCN(C)CC4)cc3)ncc12` [Example 149, 5-ethynyl-6,8-dimethyl-2-{[4-(4-methylpiperazin-1-yl)phenyl]amino}pyrido[2,3-d]pyrimidin-7-one], the IC50 in test [1] was above 3 µM; in test [2], 1 to 10 µM; in test [3], above 3 µM; in test [4], above 3 µM.
Turning to `C#Cc1c(-c2cccs2)c(=O)n(C)c2nc(Nc3ccc(N4CCN(C)CC4)cc3)ncc12` [Example 150, 5-ethynyl-8-methyl-2-{[4-(4-methylpiperazin-1-yl)phenyl]amino}-6-(thiophen-2-yl)pyrido[2,3-d]pyrimidin-7-one], the IC50 in test [1] was above 3 µM; in test [2], 1 to 10 µM; in test [3], above 3 µM; in test [4], 1 to 3 µM.
Turning to `C#Cc1c(C)c(=O)n(-c2ccccc2)c2nc(Nc3ccc(N4CCN(C)CC4)cc3)ncc12` [Example 151, 5-Ethynyl-6-methyl-2-{[4-(4-methylpiperazin-1-yl)phenyl]amino}-8-phenylpyrido[2,3-d]pyrimidin-7-one], the IC50 in test [1] fell in the range of 1 to 3 µM; in test [2] it was 1 to 10 µM; in test [3], 0.5 to 1 µM; in test [4], 0.5 to 1 µM.
On to `C=Cc1cc(=O)n(-c2ccc(OC)cc2OC)c2nc(Nc3ccc(N(C)CCN(C)C)cc3)ncc12` [Example 155, 8-(2,4-dimethoxyphenyl)-2-[(4-{[2-(dimethylamino)ethyl](methyl)amino}phenyl)amino]-5-ethenylpyrido[2,3-d]pyrimidin-7-one], for which the concentration for half-maximal inhibition (IC50) in test [1] was above 3 µM; in test [2], 1 to 10 µM; in test [3], above 3 µM; in test [4], above 3 µM.
Regarding `C=Cc1cc(=O)n(-c2cccc(OC)c2)c2nc(Nc3ccccc3OC)ncc12` [Example 156, 8-(3-Methoxyphenyl)-2-((2-methoxyphenyl)amino)-5-vinylpyrido[2,3-d]pyrimidin-7(8H)-one], the IC50 in test [1] was above 3 µM; in test [2], above 10 µM; in test [3] it was above 3 µM; in test [4], above 3 µM.
With `C=Cc1cc(=O)n(-c2ccc(OC)cc2)c2nc(Nc3ccccc3OC)ncc12` [Example 157, 8-(4-Methoxyphenyl)-2-((2-methoxyphenyl)amino)-5-vinylpyrido[2,3-d]pyrimidin-7(8H)-one], the IC50 is above 3 µM in test [1], above 10 µM in test [2], above 3 µM in test [3] and above 3 µM in test [4].
Take `C=Cc1c(-c2ccccc2Cl)c(=O)n(C)c2nc(Nc3ccc(N4CCN(C)CC4)cc3OC)ncc12` [Example 170, 6-(2-chlorophenyl)-5-ethenyl-2-{[2-methoxy-4-(4-methylpiperazin-1-yl)phenyl]amino}-8-methylpyrido[2,3-d]pyrimidin-7-one]: the IC50 is above 3 µM in test [1], above 10 µM in test [2], above 3 µM in test [3] and above 3 µM in test [4].
Regarding `C=Cc1c(-c2ccccc2Cl)c(=O)n(C)c2nc(Nc3ccc(OCCN(C)C)cc3)ncc12` [Example 172, 6-(2-chlorophenyl)-2-({4-[2-(dimethylamino)ethoxy]phenyl}amino)-5-ethenyl-8-methylpyrido[2,3-d]pyrimidin-7-one], the IC50 was above 3 µM in test [1], above 10 µM in test [2], above 3 µM in test [3] and above 3 µM in test [4].
In the case of `C#Cc1c(C)c(=O)n(Cc2cnoc2)c2nc(Nc3ccc(N4CCN(C)CC4)cc3)ncc12` [Example 175, 5-Ethynyl-6-methyl-2-{[4-(4-methylpiperazin-1-yl)phenyl]aminol}-8-(1,2-oxazol-4-ylmethyl)pyrido[2,3-d]pyrimidin-7-one], the half-maximal inhibitory concentration (IC50) was above 3 µM in test [1], above 10 µM in test [2], above 3 µM in test [3] and above 3 µM in test [4].
Consider `C#Cc1c(C)c(=O)n(Cc2cnco2)c2nc(Nc3ccc(N4CCN(C)CC4)cc3)ncc12` [Example 176, 5-Ethynyl-6-methvl-2-{[4-(4-methylpiperazin-1-yl)phenyl]aminol}-8-(1,3-oxazol-5-ylmethyl)pyrido[2,3-d]pyrimidin-7-one], for which the IC50 was above 3 µM in test [1], below 1 µM in test [2], 1 to 3 µM in test [3] and 1 to 3 µM in test [4].
Take `C#Cc1c(C)c(=O)n(Cc2ncc[nH]2)c2nc(Nc3ccc(N4CCN(C)CC4)cc3)ncc12` [Example 177, 5-Ethynyl-8-(1H-imidazol-2-ylmethyl)-6-methyl-2-{[4-(4-methylpiperazin-1-yl)phenyl]amino}pyrido[2,3-d]pyrimidin-7-one]: the IC50 in test [1] is above 3 µM; in test [2], 1 to 10 µM; in test [3], above 3 µM; in test [4], above 3 µM.
As to `C#Cc1c(C)c(=O)n(Cc2ccccn2)c2nc(Nc3ccc(N4CCN(C)CC4)cc3)ncc12` [Example 178, 5-Ethynyl-6-methyl-2-{[4-(4-methylpiperazin-1-yl)phenyl]amino}-8-(pyridin-2-ylmethyl)pyrido[2,3-d]pyrimidin-7-one], the IC50 in test [1] was above 3 µM; in test [2], below 1 µM; in test [3] it was 0.5 to 1 µM; in test [4] it was 0.5 to 1 µM.
In the case of `C#Cc1c(C)c(=O)n(Cc2ccncc2)c2nc(Nc3ccc(N4CCN(C)CC4)cc3)ncc12` [Example 179, 5-Ethynyl-6-methyl-2-{[4-(4-methylpiperazin-1-yl)phenyl]amino}-8-(pyridin-4-ylmethyl)pyrido[2,3-d]pyrimidin-7-one], the IC50 in test [1] is above 3 µM; in test [2] it was 1 to 10 µM; in test [3], 1 to 3 µM; in test [4], 1 to 3 µM.
